In patent US7446199B2, “Compositions useful as inhibitors of protein kinases” (Vertex Pharmaceuticals Incorporated, priority 2003, dated 2008):

How the values were obtained:
Format in all cases: biochemical
SYK = SYK (Homo sapiens, UniProt P43405); assay: SYK enzyme assay, coupled enzyme assay; conditions: 200 μM ATP, 4 μM poly Gly-Tyr peptide, 30° C.
Protocol: Compounds were screened for their ability to inhibit SYK using a standard coupled enzyme assay (Fox et al., Protein Sci. 1998, 7, 2249). Reactions were carried out in 100 mM HEPES (pH 7.5), 10 mM MgCl2, 25 mM NaCl, 1 mM DTT and 1.5% DMSO. Final substrate concentrations in the assay were 200 μM ATP (Sigma chemical Co.) and 4 μM poly Gly-Tyr peptide (Sigma Chemical Co.). Assays were carried out at 30° C. and 200 nM SYK. Final concentrations of the components of the coupled enzyme system were 2.5 mM phosphoenolpyruvate, 300 μM NADH, 30 μg/ml pyruvate kinase and 10 μg/ml lactate dehydrogenase.
An assay stock buffer solution was prepared containing all of the reagents listed above, with the exception of SYK, DTT, and the test compound of interest of the present invention. 56 μl of the test reaction was placed in a 96 well plate followed by the addition of 1 μl of 2 mM DMSO stock containing the test compound of the present invnetion (final compound concentration 30 μM). The plate was pre-incubated for ˜10 minutes at 30° C. and the reaction initiated by the addition of 10 μl of enzyme (final concentration 25 nM). Rates of reaction were obtained using a BioRad Ultramark plate reader (Hercules, Calif.) over a 5 minute read time at 30° C., and Ki values for the compounds of the present invention were determined according to standard methods.

Aurora-2 = target: T1, Aurora-2 (Homo sapiens, UniProt O14965); assay: Inhibition of AUR-2, coupled enzyme assay; conditions: 70 nM Aurora-2, 800 μM peptide LRRASLG, 30° C.
T1 construct: addition of 10 μL of Aurora-2 stock solution to give a final concentration of 70 nM
T1 sequence (O14965 1-403): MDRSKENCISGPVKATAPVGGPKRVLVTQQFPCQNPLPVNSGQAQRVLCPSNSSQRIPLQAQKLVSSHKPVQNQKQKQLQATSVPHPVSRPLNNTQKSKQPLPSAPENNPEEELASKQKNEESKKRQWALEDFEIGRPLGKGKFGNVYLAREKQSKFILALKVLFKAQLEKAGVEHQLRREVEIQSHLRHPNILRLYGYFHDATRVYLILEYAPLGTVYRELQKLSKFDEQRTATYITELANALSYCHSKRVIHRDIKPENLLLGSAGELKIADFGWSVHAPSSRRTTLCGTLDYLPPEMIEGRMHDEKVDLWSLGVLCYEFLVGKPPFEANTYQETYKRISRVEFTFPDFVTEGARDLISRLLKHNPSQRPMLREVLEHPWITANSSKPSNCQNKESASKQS
Protocol: Compounds are screened in the following manner for their ability to inhibit Aurora-2 using a standard coupled enzyme assay (Fox et al. (1998) Protein Sci 7, 2249). To an assay stock buffer solution containing 0.1M HEPES 7.5, 10 mM MgCl2, 1 mM DTT, 25 mM NaCl, 2.5 mM phosphoenolpyruvate, […], […], […], and 800 μM peptide (LRRASLG, American Peptide, Sunnyvale, Calif.) is added a DMSO solution of a compound of the present invention to a final concentration of 30 μM. The resulting mixture is incubated at 30° C. for 10 min. The reaction was initiated by the addition of 10 μL of Aurora-2 stock solution to give a final concentration of 70 nM in the assay. The rates of reaction are obtained by monitoring absorbance at 340 nm over a 5 minute read time at 30° C. using a BioRad Ultramark plate reader (Hercules, Calif.). The Ki values are determined from the rate data as a function of inhibitor concentration.

TAK1A-TAB fusion protein = target: T2, TAK1A-TAB fusion protein (Homo sapiens, UniProt O43318); assay: TAK-1 inhibition assay, radiometric filter binding assay; conditions: 50 μM ATP, 12 μM bovine myelin basic protein, 20 nM TAK1A-TAB fusion protein
T2 construct: using 20 nM TAK1A-TAB fusion protein
T2 sequence (O43318 with tags, fused parts or gaps isoform O43318-2 limits assumed): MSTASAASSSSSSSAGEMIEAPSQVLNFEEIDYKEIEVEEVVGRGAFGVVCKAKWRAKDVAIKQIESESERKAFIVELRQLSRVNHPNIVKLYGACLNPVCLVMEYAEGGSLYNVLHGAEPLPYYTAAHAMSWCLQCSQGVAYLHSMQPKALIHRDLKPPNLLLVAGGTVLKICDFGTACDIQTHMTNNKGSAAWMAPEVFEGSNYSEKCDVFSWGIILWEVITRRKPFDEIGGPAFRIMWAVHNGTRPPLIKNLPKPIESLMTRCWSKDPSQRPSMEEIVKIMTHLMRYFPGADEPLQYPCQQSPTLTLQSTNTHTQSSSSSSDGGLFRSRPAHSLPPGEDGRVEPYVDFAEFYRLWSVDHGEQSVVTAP
Protocol: Compounds were screened for their ability to inhibit TAK1A kinase activity using a radiometric filter binding assay. Reactions were carried out in a solution containing Buffer A (100 mM HEPES (pH 7.5), 10 mM MgCl2), 25 mM NaCl, 2 mM DTT, and 1.5% DMSO. Final substrate concentrations in the assay were 50 μM ATP (a mixture of unlabeled ATP (Sigma Chemicals, St Louis, Mo.) and ^33P-labeled ATP (PerkinElmer Life Sciences, Boston, Mass.) for a final specific activity of 50 Ci/mol), and 12 μM bovine myelin basic protein (MBP, Vertex Pharmaceuticals, Cambridge, Mass.). Reactions were carried out at ambient temperature (˜20° C.) using 20 nM TAK1A-TAB fusion protein. Under these conditions the extent of reaction is linear with time for a period of 2 hours.
A test compound of the present invention (1 μL in DMSO) was combined with ATP and Buffer A in a final volume of 47 μL in a 96 well plate. Typically, a 6 point titration was conducted by preparing serial dilutions (from 10 mM compound stocks) with DMSO of the test compounds of the present invention in daughter plates, for final concentrations spanning 0.046 μM to 3.73 μM. The reaction was initiated by the addition of 20 μl of an enzyme stock solution consisting of TAK1A-TAB fusion (described by Sugita, T. et al. in Biochem. Biophys. Res. Comm. 2002, 297, 1277-1281), MBP, Buffer A, NaCl, and DTT. The reaction was allowed to proceed for two hours at ambient temperature, then quenched with an equal volume of 10 mM unlabeled ATP in 10% trichloroacetic acid. A 110 μL aliquot of the quenched reaction was transferred to a Multiscreen PH filter plate (Millipore, Billerica, Mass.) and allowed to incubate at ambient temperature overnight (typically 16-20 hours). Following incubation the filter plates were washed with 3×150 μL aliquots of 5% trichloroacetic acid using a modified Biotek Elx405 plate washer. A 70 μL aliquot of Microscint 20 scintillation fluid (PerkinElmer) was added to each well, and the plate was then sealed and read on a TopCount NXT microplate scintillation counter (PerkinElmer). The Ki values were determined from the rate data as a function of inhibitor concentration.

`CN(C)Cc1ccc(-c2cnc3[nH]cc(-c4oncc4-c4cccc(F)c4F)c3c2)cc1` [Compound 91, (4-{3-[4-(2,3-Difluoro-phenyl)-isoxazol-5-yl]-1H-pyrrolo[2,3-b]pyridin-5-yl}-benzyl)-dimethyl-amine] was tested, and the Ki (SYK) was 1000 to 12500 nM and the Ki (Aurora-2) was 200 to 1000 nM.

Compound `Fc1cccc(-c2cnoc2-c2c[nH]c3ncccc23)c1F` [Compound 1, 3-[4-(2,3-Difluoro-phenyl)-isoxazol-5-yl]-1H-pyrrolo[2,3-b]pyridine] has a Ki (SYK) of 200 to 1000 nM and a Ki (Aurora-2) of 200 to 1000 nM.

With `Oc1cnc2[nH]cc(-c3oncc3-c3cccc(F)c3F)c2c1` [Compound 43, 3-[4-(2,3-Difluoro-phenyl)-isoxazol-5-yl]-1H-pyrrolo[2,3-b]pyridin-5-ol] the Ki (SYK) was 200 to 1000 nM and the Ki (Aurora-2) was 200 to 1000 nM.

In the case of `Nc1cccc(-c2cnc3[nH]cc(-c4oncc4-c4cccc(F)c4F)c3c2)c1` [Compound 86, 3-{3-[4-(2,3-Difluoro-phenyl)-isoxazol-5-yl]-1H-pyrrolo [2,3-b]pyridin-5-yl}-phenylamine], the Ki (SYK) is reported as 200 to 1000 nM and the Ki (Aurora-2) is reported as less than 200 nM.

`CN(C)Cc1ccnc(-c2cnc3[nH]cc(-c4oncc4-c4cccc(F)c4F)c3c2)c1` [Compound 82, (2-{3-[4-(2,3-Difluoro-phenyl)-isoxazol-5-yl]-1H-pyrrolo[2,3-b]pyridin-5-yl}-pyridin-4-ylmethyl)-dimethyl-amine] gave a Ki (SYK) of 1000 to 12500 nM and a Ki (Aurora-2) of 200 to 1000 nM.

`Fc1cccc(-c2cnoc2-c2c[nH]c3ncc(-c4c[nH]cn4)cc23)c1F` [Compound 76, 3-[4-(2,3-Difluoro-phenyl)-isoxazol-5-yl]-5-(3H-imidazol-4-yl)-1H-pyrrolo[2,3-b]pyridine] showed a Ki (SYK) of 1000 to 12500 nM and a Ki (Aurora-2) of less than 200 nM.

`Cc1noc(-c2c[nH]c3ncc(-c4ccc(N5CCN(C)CC5)cc4)cc23)c1-c1cccc(F)c1F` [Compound 135, 3-[4-(2,3-Difluoro-phenyl)-3-methyl-isoxazol-5-yl]-5-[4-(4-methyl-piperazin-1-yl)-phenyl]-1H-pyrrolo[2,3-b]pyridine] showed a Ki (SYK) of 200 to 1000 nM and a Ki (TAK1A-TAB fusion protein) of less than 200 nM.

In the case of `Clc1cccc(-c2cnoc2-c2c[nH]c3ncc(-c4cccnc4)cc23)c1Cl` [Compound 99, 3-[4-(2,3-Dichloro-phenyl)-isoxazol-5-yl]-5-pyridin-3-yl-1H-pyrrolo[2,3-b]pyridine], the Ki (SYK) is reported as 200 to 1000 nM, the Ki (Aurora-2) is reported as less than 200 nM and the Ki (TAK1A-TAB fusion protein) is reported as 200 to 1000 nM.

`Cc1noc(-c2c[nH]c3ncccc23)c1-c1cccc(F)c1F` [Compound 134, 3-[4-(2,3-Difluoro-phenyl)-3-methyl-isoxazol-5-yl]-1H-pyrrolo[2,3-b]pyridine] was tested, and the Ki (SYK) was 1000 to 12500 nM and the Ki (Aurora-2) was 200 to 1000 nM.

`Fc1cccc(-c2cnoc2-c2c[nH]c3ncc(Br)cc23)c1F` [Compound 37, 5-Bromo-3-[4-(2,3-difluoro-phenyl)-isoxazol-5-yl]-1H-pyrrolo[2,3-b]pyridine] gave a Ki (SYK) of 1000 to 12500 nM and a Ki (Aurora-2) of less than 200 nM.

For `Nc1ccc(-c2cnc3[nH]cc(-c4oncc4-c4cccc(F)c4F)c3c2)cc1` [Compound 90, 4-{3-[4-(2,3-Difluoro-phenyl)-isoxazol-5-yl]-1H-pyrrolo [2,3-b]pyridin-5-yl}-phenylamine], the Ki (SYK) was 200 to 1000 nM and the Ki (Aurora-2) was less than 200 nM.

Work on `COc1cnc2[nH]cc(-c3oncc3-c3cccc(F)c3F)c2c1` [Compound 38, 3-[4-(2,3-Difluoro-phenyl)-isoxazol-5-yl]-5-methoxy-1H-pyrrolo[2,3-b]pyridine] yielded a Ki (SYK) of 1000 to 12500 nM and a Ki (Aurora-2) of 200 to 1000 nM.

For `Fc1cccc(-c2cnoc2-c2c[nH]c3ncc(-c4ccc(CN5CCCC5)cc4)cc23)c1F` [Compound 93, 3-[4-(2,3-Difluoro-phenyl)-isoxazol-5-yl]-5-(4-pyrrolidin-1-ylmethyl-phenyl)-1H-pyrrolo[2,3-b]pyridine], the Ki (SYK) was 1000 to 12500 nM and the Ki (Aurora-2) was less than 200 nM.

`CS(=O)(=O)Nc1ccc(-c2cnc3[nH]cc(-c4oncc4-c4cccc(F)c4F)c3c2)cc1` [Compound 98, N-(4-{3-[4-(2,3-Difluoro-phenyl)-isoxazol-5-yl]-1H-pyrrolo[2,3-b]pyridin-5-yl}-phenyl)-methane sulfonamide] showed a Ki (SYK) of 1000 to 12500 nM, a Ki (Aurora-2) of less than 200 nM and a Ki (TAK1A-TAB fusion protein) of 200 to 1000 nM.

With `CC(=O)Nc1cccc(-c2cnc3[nH]cc(-c4oncc4-c4cccc(F)c4F)c3c2)c1` [Compound 65, N-(3-{3-[4-(2,3-Difluoro-phenyl)-isoxazol-5-yl]-1H-pyrrolo[2,3-b]pyridin-5-yl}-phenyl)-acetamide] the Ki (SYK) was 1000 to 12500 nM and the Ki (Aurora-2) was less than 200 nM.

Work on `CN1CCN(c2ccc(-c3cnc4[nH]cc(-c5oncc5-c5cccc(F)c5F)c4c3)cc2)CC1` [Compound 70, 3-[4-(2,3-Difluoro-phenyl)-isoxazol-5-yl]-5-[4-(4-methyl-piperazin-1-yl)-phenyl]-1H-pyrrolo[2,3-b]pyridine methanesulfonate] yielded a Ki (SYK) of 200 to 1000 nM, a Ki (Aurora-2) of less than 200 nM and a Ki (TAK1A-TAB fusion protein) of less than 200 nM.

`Fc1cccc(-c2cnoc2-c2c[nH]c3ncc(/C=C/n4cncn4)cc23)c1F` [Compound 133, 3-[4-(2,3-Difluoro-phenyl)-isoxazol-5-yl]-5-(2-[1,2,4]triazol-1-yl-vinyl)-1H-pyrrolo[2,3-b]pyridine] showed a Ki (SYK) of 1000 to 12500 nM and a Ki (TAK1A-TAB fusion protein) of 200 to 1000 nM.

In the case of `CN(C)c1ccc(-c2cnc3[nH]cc(-c4nncn4-c4cccc(F)c4F)c3c2)cc1` [Compound 106, (4-{3-[4-(2,3-Difluoro-phenyl)-4H-[1,2,4]triazol-3-yl]-1H-pyrrolo[2,3-b]pyridin-5-yl}-phenyl)-dimethyl-amine], the Ki (SYK) is reported as 1000 to 12500 nM and the Ki (TAK1A-TAB fusion protein) is reported as 200 to 1000 nM.

Compound `Fc1c(Cl)cccc1-c1cnoc1-c1c[nH]c2ncccc12` [Compound 42, 3-[4-(3-Chloro-2-fluoro-phenyl)-isoxazol-5-yl]-1H-pyrrolo[2,3-b]pyridine] has a Ki (SYK) of 1000 to 12500 nM and a Ki (Aurora-2) of 200 to 1000 nM.
